The record followed here is patent US8361968B2 (Takeda Pharmaceutical Company Limited, priority 2002, dated 2013).

The structures appear in SMILES notation. Numbered stars: 1 amine (or outer) side, 2 acyl side, 3 side chain; on linkers, the order of the positions; unused ones are H or OH. Square brackets hold non-standard residues; d marks the D form. Peptide text beside a SMILES is read from it. * marks the point of attachment. X12 = CNC(=N)NCCC[C@H](NC(=O)[C@H](CC(C)C)NCCN*)C(=O)N[C@@H](Cc1ccccc1)C(N)=O; X10 = NC(=O)C[C@@H](C(=O)[*:2])N(C[C@@H](N)Cc1ccc(O)cc1)[*:1]; Arg(Me) = CNC(=N)NCCC[C@H](N)C(=O)O; Tryptamide = c1ccc2c(CCN*)c[nH]c2c1; 4Pal = N[C@@H](Cc1ccncc1)C(=O)O; d3Pal = N[C@H](Cc1cccnc1)C(=O)O; Cha = N[C@@H](CC1CCCCC1)C(=O)O; CO = O=C([*:1])[*:2]; azaGly = NNC(=O)O

Chain of hOT7T175 (Q969F8 whole entry L364H): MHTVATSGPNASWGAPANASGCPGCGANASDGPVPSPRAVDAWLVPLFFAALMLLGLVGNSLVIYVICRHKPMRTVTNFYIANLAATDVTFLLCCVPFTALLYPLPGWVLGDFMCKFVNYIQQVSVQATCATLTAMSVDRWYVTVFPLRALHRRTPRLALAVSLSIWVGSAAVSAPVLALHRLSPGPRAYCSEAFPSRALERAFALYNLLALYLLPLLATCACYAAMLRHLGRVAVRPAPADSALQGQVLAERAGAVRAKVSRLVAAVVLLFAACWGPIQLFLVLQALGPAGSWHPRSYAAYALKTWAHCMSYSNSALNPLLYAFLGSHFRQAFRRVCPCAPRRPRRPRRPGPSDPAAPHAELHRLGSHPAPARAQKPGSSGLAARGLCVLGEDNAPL

This assay concerns the target hOT7T175 (Homo sapiens, UniProt Q969F8, L364H). Nature of the assay: Intracellular Ca ion level-increasing activity using FLIPR in hOT7T175/CHO. Also on record: expressed in transfected cells; host or cells: CHO/dhfr- cells, obtained from ATCC. The conditions noted are these: relative, Metastin (1-54) = 1. In kind it is cell-based. The protocol:
Assay for Intracellular Ca Ion Level-Increasing Activity Using Flipr
In accordance with the method described in JPA 2000-312590, the intracellular Ca ion level-increasing activity was measured using FLIPR.
The stable expression cell line hOT7T175 was acquired by transduction of expression plasmid pAK-rOT175 for animal cells into CHO/dhff cells, using CellPhect Transfection Kit (Amersham Pharmacia Biotech, Inc.). First, 240 μL of Buffer A (attached to CellPhect Transfection Kit) was added to 9.6 μg of plasmid DNA dissolved in 240 μl of distilled water, followed by stirring. After settling the mixture for 10 minutes, 480 μL of Buffer B (attached to CellPhect Transfection Kit) was added to the mixture, which was vigorously stirred to form DNA-containing liposomes. Then, 4×10^5 CHO/dhff cells (obtained from ATCC) were inoculated on a 60 mm Petri dish. […] After culturing the cells at 37° C. for 6 hours in 5% carbon dioxide gas, the cells were washed twice with serum-free Ham's F-12 medium and 3 ml of 15% glycerol was added to the cells in the Petri dish to treat for 2 minutes. The cells were again washed twice with serum-free Ham's F-12 medium followed by incubation in Ham's F-12 medium supplemented with 10% fetal bovine serum at 37° C. for 15 hours in 5% carbon dioxide gas. The cells were dispersed by trypsin treatment and recovered from the Petri dish. The recovered cells were inoculated on a 6-well plate in 1.25×10^4 cells/well and incubation was initiated at 37° C. in Dulbecco's modified Eagle medium (DMEM) medium (Nissui Seiyaku Co., Ltd.) containing 10% dialyzed fetal bovine serum (JRH BIOSCIENCES, Inc.) under 5% carbon dioxide gas. […] The medium was exchanged on Days 1 and 2 to remove the cells died.
The intracellular Ca ion level-increasing activity of the synthetic peptide in hOT7T175/CHO was determined using FLIPR (Molecular Devices, Inc.).
hOT7T175/CHO was subcultured in DMEM supplemented with 10% dialyzed fetal bovine serum (hereinafter abbreviated as dFBS) and provided for the experiment (hereinafter abbreviated as 10% dFBS/DMEM). The hOT7T175/CHO was suspended in 10% dFBS-DMEM in 15×10^4 cells/ml. The suspension was inoculated on a 96-well plate for FLIPR (Black Plate Clear Bottom, Coster, Inc.) at 200 μL each (3.0×10^4 cells/200 μL/well), followed by incubation at 37° C. overnight in a 5% CO2 incubator (hereinafter simply referred to as the cell plate). Then, 21 ml of HANKS/HBSS (9.8 g of HANKS, 0.35 g of sodium hydrogencarbonate, 20 ml of 1M HEPES; after adjusting the pH to 7.4 with 1N sodium hydroxide, the mixture was sterilized by filtration), 210 μl of 250 mM Probenecid and […] of fetal bovine serum (FBS) were mixed (HANKS/HBSS-Probenecid-FBS).
Furthermore, 2 vials of Fluo3-AM (50 μug/vial) were dissolved in 21 μL of dimethylsulfoxide and 21 μL of 20% Pluronic acid. The resulting solution was added to and mixed with 10 ml of HANKS/HBSS-Probenecid-FBS described above. After the culture medium was removed, the mixture was dispensed onto the cell plate in 100 μL each/well, followed by incubation at 37° C. for an hour in a 5% CO2 incubator (pigment loading). The peptide was dissolved in dimethylsulfoxide in 1×10^−3 M. The peptide solution was diluted with HANKS/HBSS containing 2.5 mM Probenecid, 0.2% BSA and 0.1% CHAPS.
Regarding `CNC(=N)NCCC[C@H](NC(=O)[C@H](CC(C)C)NC(=O)CNC(=O)[C@H](Cc1ccccc1)NC(=O)[C@H](CO)NC(=O)[C@H](CC(N)=O)NC(=O)[C@H](Cc1c[nH]c2ccccc12)NC(=O)[C@H](CC(N)=O)NC(=O)[C@H](N)Cc1ccc(O)cc1)C(=O)N[C@@H](Cc1c[nH]c2ccccc12)C(N)=O` [Compound No. 174] (H-[dY]NWNSFGL[Arg(Me)]W-NH2), the “Specific Activity (intracellular Ca ion level-increasing activity)” value was found to be 10.

As to `CC(C)C[C@H](NC(=O)CNC(=O)[C@H](Cc1ccccc1)NC(=O)[C@H](CO)NC(=O)[C@H](CC(N)=O)NC(=O)[C@H](Cc1c[nH]c2ccccc12)NC(=O)[C@@H](CC(N)=O)NC(=O)[C@@H](N)Cc1ccc(O)cc1)C(=O)N[C@@H](CCCNC(=N)N)C(=O)N[C@@H](Cc1ccccc1)C(N)=O` [Compound No. 41], the “Specific Activity (intracellular Ca ion level-increasing activity)” value was 10.

Consider `CNC(=N)NCCC[C@H](NC(=O)[C@H](CC(C)C)NC(=O)CNC(=O)[C@H](Cc1ccccc1)NC(=O)[C@H](CO)NC(=O)[C@H](CC(N)=O)NC(=O)[C@H](Cc1c[nH]c2ccccc12)NC(=O)[C@H](N)Cc1ccc(O)cc1)C(=O)N[C@@H](Cc1ccccc1)C(N)=O` [Compound No. 217] (H-[dY]WNSFGL[Arg(Me)]F-NH2), for which the “Specific Activity (intracellular Ca ion level-increasing activity)” value is recorded as 20.

As for `CNC(=N)NCCC[C@H](NC(=O)[C@H](CC(C)C)NC(=O)NNC(=O)[C@H](Cc1ccccc1)NC(=O)[C@H](CO)NC(=O)[C@H](CC(N)=O)NC(=O)[C@H](Cc1c[nH]c2ccccc12)NC(=O)[C@H](CC(N)=O)NC(=O)[C@@H](C)N)C(=O)N[C@@H](Cc1ccccc1)C(N)=O` [Compound No. 259, D-Ala-Asn-Trp-Asn-Ser-Phe-AzaGly-Leu-Arg(Me)-Phe-NH2] (H-[dA]NWNSF[azaGly]L[Arg(Me)]F-NH2), the “Specific Activity (intracellular Ca ion level-increasing activity)” value is recorded as 1.

For the compound `CC(C)C[C@H](NC(=O)CNC(=O)[C@H](Cc1ccc(F)cc1)NC(=O)[C@H](CO)NC(=O)[C@H](CC(N)=O)NC(=O)[C@H](Cc1c[nH]c2ccccc12)NC(=O)[C@H](CC(N)=O)NC(=O)[C@@H](N)Cc1ccc(O)cc1)C(=O)N[C@@H](CCCNC(=N)N)C(=O)N[C@@H](Cc1ccccc1)C(N)=O` [Compound No. 154, Tyr-Asn-Trp-Asn-Ser-Phe(4F)-Gly-Leu-Arg-Phe-NH2], the “Specific Activity (intracellular Ca ion level-increasing activity)” value turned out to be 5.

On to `CNC(=N)NCCC[C@H](NC(=O)[C@H](CC(C)C)NC(=O)NNC(=O)[C@H](Cc1ccccc1)NC(=O)[C@H](CO)NC(=O)[C@H](CC(N)=O)NC(=O)NCCc1c[nH]c2ccccc12)C(=O)N[C@@H](Cc1ccccc1)C(N)=O` [Compound No. 279, 2-(indol-3-yl)ethylcarbamoyl-Asn-Ser-Phe-AzaGly-Leu-Arg(Me)-Phe-NH2] ({Tryptamide-CO}-NSF[azaGly]L[Arg(Me)]F-NH2), for which the “Specific Activity (intracellular Ca ion level-increasing activity)” value came out at 5.

`CNC(=N)NCCC[C@H](NC(=O)[C@H](CC(C)C)NC(=O)NNC(=O)[C@H](Cc1ccccc1)NC(=O)[C@H](CO)NC(=O)[C@H](CC(N)=O)NC(=O)[C@@H](Cc1c[nH]c2ccccc12)NC(=O)[C@H](CC(N)=O)NC[C@@H](N)Cc1ccc(O)cc1)C(=O)N[C@@H](Cc1ccccc1)C(N)=O` [Compound No. 300, TyrΨ(CH2NH)Asn-D-Trp-Asn-Ser-Phe-AzaGly-Leu-Arg(Me)-Phe-NH2] (H-[X10][dW]NSF[azaGly]L[Arg(Me)]F-NH2): the “Specific Activity (intracellular Ca ion level-increasing activity)” value worked out at 5.

For `CNC(=N)NCCC[C@H](NC(=O)[C@H](CC(C)C)NC(=O)NNC(=O)[C@H](Cc1ccccc1)NC(=O)[C@H](CO)NC(=O)[C@H](CC(N)=O)NC(=O)[C@H](Cc1c[nH]c2ccccc12)NC(=O)[C@@H](Cc1c[nH]cn1)NC(=O)[C@H](N)Cc1ccc(O)cc1)C(=O)N[C@@H](Cc1ccccc1)C(N)=O` [Compound No. 288, D-Tyr-D-His-Trp-Asn-Ser-Phe-AzaGly-Leu-Arg(Me)-Phe-NH2] (H-[dY][dH]WNSF[azaGly]L[Arg(Me)]F-NH2), the “Specific Activity (intracellular Ca ion level-increasing activity)” value is 1.

Regarding `CNC(=N)NCCC[C@H](NC(=O)[C@H](CC(C)C)NC(=O)NNC(=O)[C@H](Cc1ccccc1)NC(=O)[C@H](CO)NC(=O)[C@H](CC(N)=O)NC(=O)[C@H](CC1CCCCC1)NC(=O)[C@H](CC(N)=O)NC(=O)[C@H](N)Cc1ccc(O)cc1)C(=O)N[C@@H](Cc1ccccc1)C(N)=O` [Compound No. 190, D-Tyr-Asn-Cha-Asn-Ser-Phe-AzaGly-Leu-Arg(Me)-Phe-NH2] (H-[dY]N[Cha]NSF[azaGly]L[Arg(Me)]F-NH2), the “Specific Activity (intracellular Ca ion level-increasing activity)” value is 10.

For the compound `CNC(=N)NCCC[C@H](NC(=O)[C@H](CC(C)C)NC(=O)NNC(=O)[C@H](Cc1ccccc1)NC(=O)[C@@H](NC(=O)[C@H](CC(N)=O)NC(=O)[C@H](Cc1c[nH]c2ccccc12)NC(=O)[C@H](CC(N)=O)NC(=O)[C@H](N)Cc1ccc(O)cc1)[C@@H](C)O)C(=O)N[C@@H](Cc1ccccc1)C(N)=O` [Compound No. 297, D-Tyr-Asn-Trp-Asn-Thr-Phe-AzaGly-Leu-Arg(Me)-Phe-NH2] (H-[dY]NWNTF[azaGly]L[Arg(Me)]F-NH2; N-terminus assumed), the “Specific Activity (intracellular Ca ion level-increasing activity)” value worked out at 1.

In the case of `CNC(=N)NCCC[C@H](NC(=O)[C@H](CC(C)C)NCCNC(=O)[C@H](Cc1ccccc1)NC(=O)[C@H](CO)NC(=O)[C@H](CC(N)=O)NC(=O)[C@H](Cc1c[nH]c2ccccc12)NC(=O)[C@H](CC(N)=O)NC(=O)[C@H](N)Cc1ccc(O)cc1)C(=O)N[C@@H](Cc1ccccc1)C(N)=O` [Compound No. 307, D-Tyr-Asn-Trp-Asn-Ser-Phe-GlyΨ(CH2NH)Leu-Arg(Me)-Phe-NH2] (H-[dY]NWNSF-X12), the “Specific Activity (intracellular Ca ion level-increasing activity)” value was 1.

Consider `CNC(=N)NCCC[C@H](NC(=O)[C@H](CC(C)C)NC(=O)NNC(=O)[C@H](Cc1ccccc1)NC(=O)[C@H](CO)NC(=O)[C@H](CC(N)=O)NC(=O)[C@H](Cc1ccncc1)NC(=O)[C@@H](CC(N)=O)NC(=O)[C@@H](N)Cc1ccc(O)cc1)C(=O)N[C@@H](Cc1ccccc1)C(N)=O` [Compound No. 304, Tyr-D-Asn-Pya(4)-Asn-Ser-Phe-AzaGly-Leu-Arg(Me)-Phe-NH2] (H-Y[dN][4Pal]NSF[azaGly]L[Arg(Me)]F-NH2), for which the “Specific Activity (intracellular Ca ion level-increasing activity)” value is recorded as 3.

With `CC(C)C[C@H](NC(=O)CNC(=O)[C@H](Cc1ccccc1)NC(=O)[C@H](CO)NC(=O)[C@H](CC(N)=O)NC(=O)[C@H](Cc1c[nH]c2ccccc12)NC(=O)[C@H](CC(N)=O)NC(=O)[C@@H](N)Cc1ccc(O)cc1)C(=O)N[C@@H](CCNC(=N)N)C(=O)N[C@@H](Cc1ccccc1)C(N)=O` [Compound No. 310], the “Specific Activity (intracellular Ca ion level-increasing activity)” value is 3.

Turning to `CNC(=N)NCCC[C@H](NC(=O)[C@H](CC(C)C)NC(=O)NNC(=O)[C@H](Cc1ccccc1)NC(=O)[C@H](CO)NC(=O)[C@H](CC(N)=O)NC(=O)[C@H](CC1CCCCC1)NC(=O)[C@@H](Cc1ccc(O)cc1)NC(=O)[C@H](N)Cc1cccnc1)C(=O)N[C@@H](Cc1ccccc1)C(N)=O` [Compound No. 291, D-Pya(3)-D-Tyr-Cha-Asn-Ser-Phe-AzaGly-Leu-Arg(Me)-Phe-NH2] (H-[d3Pal][dY][Cha]NSF[azaGly]L[Arg(Me)]F-NH2; N-terminus assumed), the “Specific Activity (intracellular Ca ion level-increasing activity)” value is 2.
